{"source": "ChEMBL document CHEMBL1201862", "about": "“PubChem BioAssay data set” (2004)", "key": {"[1]": {"test": "Luminescence Cell-Based Dose Retest to Confirm Inhibitors of Cancer Stem Cells. [Related pubchem assays (depositor defined):AID2717, AID2721]", "format": "functional", "conditions": "Homo sapiens"}, "[2]": {"test": "cytotoxicity in HMLE control line with eGFP shRNA, dose response, counter-screen for HMLE_sh_ECad selective toxicity project, cell-based, HMLE_sh_eGFP, luminescence (AID 463074);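 also: HMLE human mammary epithelial cells expressing control shRNA against eGFP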", "format": "functional, Homo sapiens"}, "[3]": {"test_system": "BJ", "test": "cytotoxicity toward Ras-transformed BJeLR fibroblasts, dose response, cell-based, alamar blue fluorescence, cherrypicked samples (AID 2631)", "format": "functional", "conditions": "Homo sapiens"}, "[4]": {"test": "control 3'UTR Renilla luciferase suppression, dose response, counter-screen for Shn3 inhibitor project, cell-based, Clone20-Shn3RL, cherry-picked (AID 624133)", "format": "functional"}, "[5]": {"test_system": "BJ", "test": "cytotoxicity toward BJ-TERT fibroblasts, dose response, cell-based, RAS-independent, luminescence (AID 1933)", "format": "functional", "conditions": "Homo sapiens"}, "[6]": {"test_system": "HEK293", "test": "SAR Analysis of small molecule inhibitors of T-cell specific antigen receptor-induced NF-kB activation in a HEK-293T cell line using a luminescence assay - Set 2. [Related pubchem assays (depositor defined):AID435003, AID435012, AID489026]", "format": "functional, cell-based", "conditions": "Homo sapiens"}, "[7]": {"test_system": "BJ", "test": "cells", "format": "functional, cell-based", "conditions": "Homo sapiens"}, "[8]": {"test_system": "BJ", "test": "cytotoxicity toward BJ-TERT-LT-ST fibroblasts, dose response, cell-based, RAS-independent, luminescence (AID 1935);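 also: BJ fibroblasts immortalized with TERT plus LT and ST oncogenes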", "format": "functional", "conditions": "Homo sapiens"}, "[9]": {"test": "cells", "format": "functional, cell-based"}, "[10]": {"test": "HepG2 cell cytotoxicity, dose response, cytotoxicity control for Shn3 inhibitor project, CellTiter-Glo, cherry-picked (AID 624134)", "format": "functional, cell-based"}, "[11]": {"molecular_target": "Heat shock protein HSP 90-alpha (Homo sapiens, UniProt P07900)", "format": "functional, organism-based"}, "[12]": {"test_system": "Jurkat", "test": "SAR Analysis of small molecule inhibitors of T-cell specific antigen receptor-induced NF-kB activation in a Jurkat cell line using a luminescence assay - Set 2. [Related pubchem assays (depositor defined):AID435003, AID435012, AID465]", "format": "functional, cell-based", "conditions": "Homo sapiens"}, "[13]": {"test_system": "HEK293", "test": "cytotoxicity in HEK293T NF-kB-Luc cells, SAR follow-up, cytotoxicity control for NF-kB activator project, cell-based, resazurin fluorescence (AID 493251)", "format": "functional", "conditions": "Homo sapiens"}, "[14]": {"test": "Shn3 3'UTR reporter inhibitors, dose response, cell-based, Clone20 osteoblasts, firefly luciferase, cherry-picked (AID 624132)", "format": "functional"}, "[15]": {"test": "cells", "format": "functional, cell-based", "remark": "listed apart in the source"}, "[16]": {"test": "cytotoxicity toward DRD oncogenic fibroblasts, dose response, cell-based, non-viral oncogenic, luminescence (AID 1934)", "format": "functional", "conditions": "Homo sapiens"}, "[17]": {"molecular_target": "Latent membrane protein 1 (Human herpesvirus 4 (strain B95-8), UniProt P03230)", "sequence (P03230 whole entry)": "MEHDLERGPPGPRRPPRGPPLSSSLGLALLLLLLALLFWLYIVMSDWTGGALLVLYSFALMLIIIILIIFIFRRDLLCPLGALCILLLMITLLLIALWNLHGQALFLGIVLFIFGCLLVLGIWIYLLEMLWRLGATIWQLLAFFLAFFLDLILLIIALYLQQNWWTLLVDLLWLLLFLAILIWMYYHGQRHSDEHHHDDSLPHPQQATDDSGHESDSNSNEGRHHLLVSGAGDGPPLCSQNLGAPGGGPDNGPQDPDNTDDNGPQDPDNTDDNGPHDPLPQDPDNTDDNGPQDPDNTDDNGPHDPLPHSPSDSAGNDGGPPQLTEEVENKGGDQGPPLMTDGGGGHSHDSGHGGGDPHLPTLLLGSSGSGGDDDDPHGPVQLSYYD", "test": "TES1-eGFP NF-kB reporter inhibition versus Tet-On dsRED, dose response, selectivity assay for LMP1 NF-kB inhibitor project, imaging, HEK293T, dual-color eGFP/dsRED, cherry-picks (AID 588398)", "format": "functional, cell-based"}, "[18]": {"test_system": "HEK293", "test": "inhibitors of LMP1-driven NF-kB reporter, dose response, cell-based, HEK293, luciferase, cherry-pick (AID 588343)", "format": "functional", "conditions": "Homo sapiens"}, "[19]": {"molecular_target": "T1, Interleukin-8 (Homo sapiens, UniProt P10145)", "T1 sequence (P10145 whole entry)": "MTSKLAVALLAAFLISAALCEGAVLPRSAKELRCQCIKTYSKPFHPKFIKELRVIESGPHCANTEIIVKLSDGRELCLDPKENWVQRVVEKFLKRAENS", "test": "Dose Response confirmation of uHTS small molecule hits for cystic fibrosis induced NFkb Inhibitors in a PAF-induced IL8 counterscreen.", "format": "functional", "conditions": "read-out: IC50_Mean"}, "[20]": {"molecular_target": "T1, Interleukin-8", "test": "Dose Response confirmation of uHTS small molecule hits for cystic fibrosis induced NFkb Inhibitors in a TNFa-induced IL8 counterscreen.", "format": "functional", "conditions": "read-out: IC50_Mean"}, "[21]": {"molecular_target": "FAD-linked sulfhydryl oxidase ALR (Homo sapiens, UniProt P55789)", "sequence (P55789 whole entry)": "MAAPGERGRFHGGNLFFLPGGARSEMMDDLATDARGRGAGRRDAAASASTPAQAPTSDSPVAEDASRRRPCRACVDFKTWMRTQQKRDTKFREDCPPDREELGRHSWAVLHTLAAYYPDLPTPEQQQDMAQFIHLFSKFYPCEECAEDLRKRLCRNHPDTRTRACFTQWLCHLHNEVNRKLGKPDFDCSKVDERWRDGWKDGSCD", "test": "inhibitors of human ALR sulfhydryl oxidase, dose response, biochemical, H2O2 detection, luminescence, cherry-pick (AID 493248)"}, "[22]": {"molecular_target": "SWI/SNF-related matrix-associated actin-dependent regulator of chromatin subfamily A member 2 (Homo sapiens, UniProt P51531)", "sequence (P51531 whole entry)": "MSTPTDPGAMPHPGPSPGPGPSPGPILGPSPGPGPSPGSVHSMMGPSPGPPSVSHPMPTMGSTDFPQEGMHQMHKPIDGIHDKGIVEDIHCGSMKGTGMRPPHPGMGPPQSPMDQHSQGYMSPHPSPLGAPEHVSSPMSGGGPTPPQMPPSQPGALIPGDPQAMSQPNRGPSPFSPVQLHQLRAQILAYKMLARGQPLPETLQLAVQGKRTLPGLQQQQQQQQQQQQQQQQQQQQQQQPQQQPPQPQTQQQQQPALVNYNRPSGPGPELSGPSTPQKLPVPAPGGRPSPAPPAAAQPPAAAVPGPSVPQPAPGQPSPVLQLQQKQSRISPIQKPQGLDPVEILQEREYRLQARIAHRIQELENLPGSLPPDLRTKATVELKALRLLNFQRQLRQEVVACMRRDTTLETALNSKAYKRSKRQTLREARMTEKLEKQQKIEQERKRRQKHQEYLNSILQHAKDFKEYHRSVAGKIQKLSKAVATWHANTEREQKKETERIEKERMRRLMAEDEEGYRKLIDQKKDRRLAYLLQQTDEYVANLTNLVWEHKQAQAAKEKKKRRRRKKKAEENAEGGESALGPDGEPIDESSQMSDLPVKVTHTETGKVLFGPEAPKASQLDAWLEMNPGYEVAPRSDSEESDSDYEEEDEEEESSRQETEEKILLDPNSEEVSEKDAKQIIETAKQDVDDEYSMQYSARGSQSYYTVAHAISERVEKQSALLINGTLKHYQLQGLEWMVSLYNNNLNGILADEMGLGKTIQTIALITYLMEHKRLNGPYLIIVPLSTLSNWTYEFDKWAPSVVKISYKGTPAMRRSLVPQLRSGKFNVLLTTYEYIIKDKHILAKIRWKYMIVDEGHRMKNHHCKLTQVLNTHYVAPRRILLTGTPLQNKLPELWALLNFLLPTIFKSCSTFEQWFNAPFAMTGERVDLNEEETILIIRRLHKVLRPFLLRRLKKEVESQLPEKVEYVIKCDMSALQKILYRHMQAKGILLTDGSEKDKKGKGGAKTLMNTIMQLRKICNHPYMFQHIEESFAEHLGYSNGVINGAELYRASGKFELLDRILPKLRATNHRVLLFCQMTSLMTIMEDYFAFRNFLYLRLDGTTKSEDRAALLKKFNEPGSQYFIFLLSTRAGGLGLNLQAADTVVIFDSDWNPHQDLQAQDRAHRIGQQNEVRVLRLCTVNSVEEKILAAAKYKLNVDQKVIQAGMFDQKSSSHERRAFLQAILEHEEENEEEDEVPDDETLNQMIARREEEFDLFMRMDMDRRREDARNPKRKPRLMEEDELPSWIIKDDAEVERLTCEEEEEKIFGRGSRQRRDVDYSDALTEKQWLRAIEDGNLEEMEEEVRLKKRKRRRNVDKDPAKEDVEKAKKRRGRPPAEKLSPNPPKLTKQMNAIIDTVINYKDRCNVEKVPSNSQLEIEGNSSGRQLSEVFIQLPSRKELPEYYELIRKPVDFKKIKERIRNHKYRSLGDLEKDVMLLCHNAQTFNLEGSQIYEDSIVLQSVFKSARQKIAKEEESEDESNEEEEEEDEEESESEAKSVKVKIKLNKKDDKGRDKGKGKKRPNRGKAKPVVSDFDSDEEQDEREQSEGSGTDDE", "test": "Luminescence-based cell-based high throughput dose response assay to identify activators of the function of SWI/SNF related, matrix associated, actin dependent regulator of chromatin, subfamily a, member 2 (SMARCA2, BRM).", "format": "functional"}, "[23]": {"test": "Counterscreen for activators of the function of SWI/SNF related, matrix associated, actin dependent regulator of chromatin, subfamily a, member 2 (SMARCA2, BRM): Luminescence-based cell-based high throughput dose response assay to identify non-selective compounds using the VP16 reporter assay.", "format": "functional"}, "[24]": {"test": "cytotoxicity toward NIH3T3 fibroblasts, dose response, counter-screen, cell-based, ATP luminescence, mouse fibroblasts (AID 2010);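 also: cells exposed to compound for about 90 hours before reading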", "format": "functional"}, "[25]": {"molecular_target": "DNA repair and recombination protein RAD54-like (Homo sapiens, UniProt Q92698)", "sequence (Q92698 whole entry)": "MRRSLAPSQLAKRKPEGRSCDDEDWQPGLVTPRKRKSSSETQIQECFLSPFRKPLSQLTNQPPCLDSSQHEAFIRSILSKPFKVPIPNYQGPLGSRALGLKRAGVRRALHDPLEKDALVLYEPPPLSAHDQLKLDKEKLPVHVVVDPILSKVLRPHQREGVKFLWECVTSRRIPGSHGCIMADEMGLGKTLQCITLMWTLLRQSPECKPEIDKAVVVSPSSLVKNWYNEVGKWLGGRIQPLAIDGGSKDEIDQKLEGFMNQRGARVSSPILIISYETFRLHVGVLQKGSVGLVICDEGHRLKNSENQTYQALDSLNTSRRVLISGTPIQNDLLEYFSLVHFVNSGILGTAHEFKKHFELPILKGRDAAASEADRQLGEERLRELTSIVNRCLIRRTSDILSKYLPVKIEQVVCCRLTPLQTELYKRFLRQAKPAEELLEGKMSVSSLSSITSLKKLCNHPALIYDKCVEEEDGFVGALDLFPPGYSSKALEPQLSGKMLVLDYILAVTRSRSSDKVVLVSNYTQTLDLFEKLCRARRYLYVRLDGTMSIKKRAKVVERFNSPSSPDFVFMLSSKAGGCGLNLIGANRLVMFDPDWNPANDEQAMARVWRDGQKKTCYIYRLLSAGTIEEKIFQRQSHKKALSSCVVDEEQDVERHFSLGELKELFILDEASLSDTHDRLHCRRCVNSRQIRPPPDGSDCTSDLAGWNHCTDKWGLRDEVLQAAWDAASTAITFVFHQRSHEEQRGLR", "test": "inhibitors of human RAD54 branch migration, confirmation, biochemical, fluorescence, cherry-picked samples, dose series (AID 651657)", "format": "functional"}, "[26]": {"test": "inhibitors of intracellular T. cruzi replication, confirmation, NIH3T3 host cells, beta-gal luminescence (AID 2044);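 also: luminescent beta-galactosidase reporter signal from transgenic T. cruzi replicating inside host cells; inhibitors lower the luminescence signal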", "format": "functional, cell-based"}, "[27]": {"test": "NIH-3T3 fibroblast cytotoxicity, dose response, cytotoxicity control, cell-based, fluorescence, Alamar Blue, secondary assay (AID 2327);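 also: NIH-3T3 mouse fibroblasts cultured with fluconazole at 8 µg/mL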", "format": "functional"}, "[28]": {"molecular_target": "T2, Heat shock factor protein 1 (Mus musculus, UniProt P38532)", "T2 sequence (P38532 whole entry)": "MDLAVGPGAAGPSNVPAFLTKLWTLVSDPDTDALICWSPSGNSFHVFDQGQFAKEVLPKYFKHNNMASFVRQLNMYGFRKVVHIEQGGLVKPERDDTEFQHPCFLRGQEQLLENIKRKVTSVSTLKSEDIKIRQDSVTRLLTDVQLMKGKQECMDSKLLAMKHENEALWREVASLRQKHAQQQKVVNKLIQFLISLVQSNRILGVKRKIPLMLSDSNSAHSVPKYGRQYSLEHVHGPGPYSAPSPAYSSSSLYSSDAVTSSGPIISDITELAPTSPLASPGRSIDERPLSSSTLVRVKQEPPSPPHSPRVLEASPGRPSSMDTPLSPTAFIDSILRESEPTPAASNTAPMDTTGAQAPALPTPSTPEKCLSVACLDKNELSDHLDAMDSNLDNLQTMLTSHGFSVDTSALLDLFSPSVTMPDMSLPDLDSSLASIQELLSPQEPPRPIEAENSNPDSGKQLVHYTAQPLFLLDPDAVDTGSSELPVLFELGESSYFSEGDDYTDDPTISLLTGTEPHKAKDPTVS", "test": "inhibition of MG132-induced HSE-luciferase signal, confirmation, cell-based, NIH3T3, luminescence, dose retest (AID 2382);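 also: NIH3T3 fibroblasts with HSF1-driven luciferase reporter stressed by proteasome inhibitor MG132; luminescence from HSF1-driven luciferase expression after 8 hours of MG132 stress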", "format": "functional"}, "[29]": {"test": "C. albicans growth with fluconazole, confirmation, fluorescence, retest (AID 2467)", "format": "functional, cell-based"}}, "note": "Calls of active or inactive are those of the source."}
{"compound": "O=C1Nc2cc(C(=O)N3CCc4ccccc4C3)ccc2S/C1=C\\c1ccccc1", "values": [{"measurement": "AC50", "setting": "[1]", "value": "3.43 µM (active)"}, {"measurement": "AC50", "setting": "[2]", "value": "55.5 µM (active)"}]}
{"compound": "CCCCC(=O)NC(c1ccc(C(C)C)cc1)c1ccc2cccnc2c1O", "note": "(stereo unspecified)", "values": [{"measurement": "EC50", "setting": "[3]", "value": "2.13 µM (active)"}, {"measurement": "AC50", "setting": "[4]", "value": "0.331 µM (active)"}, {"measurement": "EC50", "setting": "[5]", "value": "0.534 µM (active)"}, {"measurement": "IC50", "setting": "[6]", "value": "6.67 µM (active)"}, {"measurement": "EC50", "setting": "[7]", "value": "2.67 µM (active)"}, {"measurement": "EC50", "setting": "[8]", "value": "1.5 µM (inconclusive)"}, {"measurement": "EC50", "setting": "[9]", "value": "2.94 µM (active)"}, {"measurement": "AC50", "setting": "[10]", "value": "> 70 µM (inactive)"}, {"measurement": "AC50", "setting": "[11]", "value": "5.41 µM (active)"}, {"measurement": "IC50", "setting": "[12]", "value": "3.17 µM (active)"}, {"measurement": "IC50", "setting": "[13]", "value": "20.2 µM (inactive)"}, {"measurement": "AC50", "setting": "[14]", "value": "0.57 µM (active)"}, {"measurement": "EC50", "setting": "[15]", "value": "> 350 µM (not active)"}, {"measurement": "EC50", "setting": "[16]", "value": "4.19 µM (active)"}]}
{"compound": "CCOC(=O)c1c(-n2cccc2)sc2c1CCCC2=O", "values": [{"measurement": "AC50", "setting": "[17]", "value": "4.1 µM (active)"}, {"measurement": "AC50", "setting": "[18]", "value": "12.3 µM (active)"}]}
{"compound": "COc1ccc(-c2c[nH]nc2-c2ccc(OC)cc2O)cc1", "values": [{"measurement": "IC50", "setting": "[19]", "value": "43.5 µM (inactive)"}, {"measurement": "IC50", "setting": "[20]", "value": "> 79 µM (inactive)"}, {"measurement": "AC50", "setting": "[21]", "value": "9.8 µM (active)"}]}
{"compound": "COc1cc2nc(N(C)C)nc(N)c2cc1OC", "values": [{"measurement": "EC50", "setting": "[22]", "value": "37 µM (inactive)"}, {"measurement": "EC50", "setting": "[23]", "value": "> 91.2 µM (inactive)"}, {"measurement": "EC50", "setting": "[24]", "value": "> 60 µM (not active)"}, {"measurement": "AC50", "setting": "[25]", "value": "12.5 µM (active)"}, {"measurement": "EC50", "setting": "[26]", "value": "6.08 µM (active)"}]}
{"compound": "COc1ccc(OC2C(=O)N(Cc3ccc4c(c3)OCO4)C2c2sccc2C)cc1", "note": "(stereo unspecified)", "values": [{"measurement": "AC50", "setting": "[1]", "value": "29.8 µM (active)"}, {"measurement": "EC50", "setting": "[27]", "value": "> 160 µM (inactive)"}, {"measurement": "EC50", "setting": "[28]", "value": "> 195 µM (not active)"}, {"measurement": "AC50", "setting": "[2]", "value": "40.4 µM (active)"}, {"measurement": "EC50", "setting": "[29]", "value": "> 38 µM (not active)"}]}
